The text below walks through data of ChEMBL document CHEMBL4359894, “Novel class of 7-Oxabicyclo[2.2.1]heptene sulfonamides with long alkyl chains displaying improved estrogen receptor α degradation activity” (Eur J Med Chem, 2019).

Active and inactive are the calls of the source. No cut-off for these calls is given here. Where a SMILES comes first, the peptide text is derived from it. The star is where a group is joined. Cbz = O=C(OCc1ccccc1)*

Data set [1] concerns the target T1, Estrogen receptor (Homo sapiens) (UniProt P03372).
T1 sequence (whole entry): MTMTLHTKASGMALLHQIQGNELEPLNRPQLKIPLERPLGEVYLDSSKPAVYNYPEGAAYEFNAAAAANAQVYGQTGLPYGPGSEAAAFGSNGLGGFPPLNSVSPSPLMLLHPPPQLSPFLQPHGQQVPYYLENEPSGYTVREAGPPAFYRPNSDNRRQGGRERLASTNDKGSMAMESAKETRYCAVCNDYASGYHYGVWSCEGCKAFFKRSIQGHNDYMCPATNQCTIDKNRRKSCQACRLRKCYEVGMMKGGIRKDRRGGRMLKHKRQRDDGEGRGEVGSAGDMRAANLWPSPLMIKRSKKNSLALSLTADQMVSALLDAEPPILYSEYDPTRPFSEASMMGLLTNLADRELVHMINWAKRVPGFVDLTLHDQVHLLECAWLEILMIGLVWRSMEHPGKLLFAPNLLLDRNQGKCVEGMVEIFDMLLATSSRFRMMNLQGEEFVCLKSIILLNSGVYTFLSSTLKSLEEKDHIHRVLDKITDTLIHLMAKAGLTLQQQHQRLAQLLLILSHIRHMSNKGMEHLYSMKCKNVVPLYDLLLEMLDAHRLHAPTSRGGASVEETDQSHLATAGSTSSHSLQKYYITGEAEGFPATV
Description: Binding affinity to ERalpha (unknown origin) by competitive fluorometric receptor binding assay relative to estradiol.

Data set [2] deals with Estrogen receptor beta (Homo sapiens) (UniProt Q92731). Description: Binding affinity to ERbeta (unknown origin) by competitive fluorometric receptor binding assay relative to estradiol.
The test system of another data set is MCF7. Description: Antiproliferative activity against human MCF7 cell incubated for 72 hrs by MTT assay. The settings on record: MCF7, 72 h. It counts as functional, cell-based.
The subject of the next data set is MCF-10A. Description: Cytotoxicity against human MCF10A cell incubated for 72 hrs by MTT assay. It is filed as cell-based.
Data set [3] in a line: Therapeutic index, ratio of IC50 for cytotoxicity against human MCF10A cells to IC50 for antiproliferative activity against human MCF7 cells. It counts as toxicity, cell-based. As to conditions: read-out: Ratio IC50.
For data set [4], the target named is T1, Estrogen receptor (Homo sapiens). Description: Induction of ERalpha degradation in human MCF7 cells assessed as decrease in ERalpha protein expression at 5 uM incubated for 24 hrs by Western blot analysis relative to control. It is filed as cell-based. Also noted: scale not given: the % may be the effect or the level left.
Data set [5] has the same target. Description: Induction of ERalpha degradation in human MCF7 cells assessed as decrease in ERalpha protein expression at 1 uM incubated for 24 hrs by Western blot analysis relative to control. It is filed as cell-based.
The target is the same in data set [6]. Description: Induction of ERalpha degradation in human MCF7 cells assessed as decrease in ERalpha protein expression at 0.1 to 10 uM incubated for 24 hrs by Western blot analysis. It counts as cell-based.
Data set [7] has the same target. Description: Induction of ERalpha degradation in human MCF7 cells assessed as decrease in ERalpha protein expression at 10 uM incubated for 24 hrs by Western blot analysis. It is filed as cell-based.

Chain of Estrogen receptor beta (Homo sapiens) (Q92731 whole entry): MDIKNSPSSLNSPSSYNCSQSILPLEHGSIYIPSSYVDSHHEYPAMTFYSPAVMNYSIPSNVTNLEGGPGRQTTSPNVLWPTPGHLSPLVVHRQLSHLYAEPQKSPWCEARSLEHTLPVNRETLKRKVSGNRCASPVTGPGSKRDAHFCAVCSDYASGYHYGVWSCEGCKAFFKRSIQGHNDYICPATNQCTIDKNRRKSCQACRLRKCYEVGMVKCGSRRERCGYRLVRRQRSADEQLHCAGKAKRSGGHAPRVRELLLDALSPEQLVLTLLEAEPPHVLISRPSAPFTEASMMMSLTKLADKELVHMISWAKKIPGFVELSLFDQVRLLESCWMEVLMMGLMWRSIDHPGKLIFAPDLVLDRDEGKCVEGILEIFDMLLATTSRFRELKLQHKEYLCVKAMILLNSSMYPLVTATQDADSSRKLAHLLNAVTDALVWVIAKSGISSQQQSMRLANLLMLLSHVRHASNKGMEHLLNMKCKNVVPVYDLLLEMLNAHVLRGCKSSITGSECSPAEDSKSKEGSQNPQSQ

As to `CCCCOc1ccc(C2=C(c3ccc(O)cc3)[C@H]3O[C@@H]2C[C@@H]3S(=O)(=O)N(CC(F)(F)F)c2ccc(OC)cc2)cc1` (relative stereo), the relative binding affinity (RBA) in [1] turned out to be 1.81; in data set [2] it was 0.27. Also, the IC50 with MCF7 is 2430 nM; with MCF-10A, 78.3 µM. In data set [3], the selectivity ratio was determined as 32.2. The Activity in [4] was determined as 100%.
Regarding `COc1ccc(N(CC(F)(F)F)S(=O)(=O)[C@H]2C[C@H]3O[C@@H]2C(c2ccc(O)cc2)=C3c2ccc(O)cc2)cc1` (relative stereo), the values for the relative binding affinity (RBA) in [1] and in [2] were 0.74 and 0.07, respectively. Moreover, the IC50 in the data set on MCF7 was 9840 nM; in the data set on MCF-10A, 41.7 µM. Further, the selectivity ratio in [3] worked out at 4.2. Also, the outcome in data set [5] and in data set [6] was Active.
For `CCCCCOc1ccc(C2=C(c3ccc(O)cc3)[C@H]3O[C@@H]2C[C@@H]3S(=O)(=O)N(CC(F)(F)F)c2ccc(OC)cc2)cc1` (relative stereo), the relative binding affinity (RBA) in data set [1] is 1.53; in data set [2] it was 0.24. Also, the IC50 with MCF7 is 1780 nM; in the data set on MCF-10A it was > 100 µM. Further, the selectivity ratio in data set [3] was > 56.1. Besides, in [4], the Activity is 100%.
Take `CC(C)C[C@@H](C=O)NC(=O)[C@H](CC(C)C)NC(=O)[C@H](CC(C)C)NC(=O)OCc1ccccc1` (Cbz-Leu-Leu-Leu-aldehyde): in [7], the outcome was inactive.
As for `CCCCCCOc1ccc(N(CC)S(=O)(=O)[C@H]2C[C@H]3O[C@@H]2C(c2ccc(O)cc2)=C3c2ccc(O)cc2)cc1` (relative stereo), the relative binding affinity (RBA) in [1] is 2.29; in data set [2], 0.14. For the same molecule, the IC50 in the data set on MCF7 was found to be 1480 nM; in the data set with MCF-10A it was 36.5 µM. In addition, the selectivity ratio in data set [3] is 24.6. Moreover, in data set [4], the result was Active.
Regarding `CCCCCCOc1ccc(N(C)S(=O)(=O)[C@H]2C[C@H]3O[C@@H]2C(c2ccc(O)cc2)=C3c2ccc(O)cc2)cc1` (relative stereo), the relative binding affinity (RBA) in data set [1] is 2.02; in data set [2] it was 0.12. Besides, the IC50 in the data set with MCF7 amounted to 4140 nM; with MCF-10A, 30.4 µM. Moreover, the selectivity ratio in [3] turned out to be 7.3. The outcome in data set [4] was Active.
As to `CCCCCOc1ccc(C2=C(c3ccc(O)cc3)[C@H]3C[C@H](S(=O)(=O)N(CC(F)(F)F)c4ccc(OC)cc4)[C@@H]2O3)cc1` (relative stereo), the relative binding affinity (RBA) amounted to 4.29 in data set [1] and 0.04 in [2]. In addition, the IC50 in the data set with MCF7 stood at 12700 nM; in the data set with MCF-10A it was 97.3 µM. The selectivity ratio in data set [3] came out at 7.6. In addition, the Activity in [4] came to 100%.
With `CCCCOc1ccc(C2=C(c3ccc(O)cc3)[C@H]3O[C@@H]2C[C@@H]3S(=O)(=O)N(CC(F)(F)F)c2ccc(Cl)cc2)cc1` (relative stereo), the values for the relative binding affinity (RBA) in [1] and in data set [2] were 1.13 and 0.16, respectively. In addition, the IC50 turned out to be 3220 nM in the data set on MCF7 and 47.4 µM in the data set with MCF-10A. In addition, in data set [3], the selectivity ratio is 14.7.
Take `CCCCCCCCOc1ccc(C2=C(c3ccc(O)cc3)[C@H]3O[C@@H]2C[C@@H]3S(=O)(=O)N(CC(F)(F)F)c2ccc(OC)cc2)cc1` (relative stereo): the relative binding affinity (RBA) in [1] came out at 1.59; in data set [2], 0.15. Besides, the IC50 in the data set on MCF7 is 2390 nM; in the data set on MCF-10A, 42.8 µM. Moreover, in data set [3], the selectivity ratio worked out at 17.9.
For `CCCCOc1ccc(C2=C(c3ccc(O)cc3)[C@H]3O[C@@H]2C[C@@H]3S(=O)(=O)N(CC)c2ccccc2)cc1` (relative stereo) the same measures were 3.12, 0.04, 1820 nM, 32.8 µM and 18.
As for `CCCCCCOc1ccc(C2=C(c3ccc(O)cc3)[C@H]3C[C@H](S(=O)(=O)N(CC(F)(F)F)c4ccc(OC)cc4)[C@@H]2O3)cc1` (relative stereo), the results for the relative binding affinity (RBA) in [1] and in data set [2] were 8.37 and 0.01, respectively. Besides, the figures for the IC50 in the data set with MCF7 and with MCF-10A were 1150 nM and 39 µM, respectively. In data set [3], the selectivity ratio was found to be 33.9. Moreover, the Activity in data set [4] is 100%.
As to `CCCCCCCCOc1ccc(C2=C(c3ccc(O)cc3)[C@H]3C[C@H](S(=O)(=O)N(CC(F)(F)F)c4ccc(OC)cc4)[C@@H]2O3)cc1` (relative stereo), the results for the relative binding affinity (RBA) in data set [1] and in data set [2] were 1.08 and 0.32, respectively. Moreover, the IC50 with MCF7 was 2210 nM; with MCF-10A it was > 100 µM. Besides, the selectivity ratio in data set [3] is > 45.2.
For `CCCCCCOc1ccc(C2=C(c3ccc(O)cc3)[C@H]3C[C@H](S(=O)(=O)N(CC(F)(F)F)c4ccc(Cl)cc4)[C@@H]2O3)cc1` (relative stereo) the same measures were 4.14, 0.04, 2890 nM, 57.5 µM and 19.8.
Regarding `CCCCOc1ccc(C2=C(c3ccc(O)cc3)[C@H]3C[C@H](S(=O)(=O)N(CC)c4ccccc4)[C@@H]2O3)cc1` (relative stereo), the relative binding affinity (RBA) in data set [1] was determined as 3.26; in data set [2] it was 0.05. The IC50 in the data set on MCF7 is 3290 nM; in the data set with MCF-10A, 59.2 µM. The selectivity ratio in [3] worked out at 17.9.
On to `CCCCCCOc1ccc(C2=C(c3ccc(O)cc3)[C@H]3O[C@@H]2C[C@@H]3S(=O)(=O)N(CC)c2ccccc2)cc1` (relative stereo), for which the relative binding affinity (RBA) in data set [1] was 2.51; in [2] it was 0.53. Moreover, the IC50 amounted to 970 nM in the data set on MCF7 and 42.6 µM in the data set on MCF-10A. Moreover, the selectivity ratio in data set [3] amounted to 43.9.
Turning to `CCCCCCCCOc1ccc(C2=C(c3ccc(O)cc3)[C@H]3C[C@H](S(=O)(=O)N(CC(F)(F)F)c4ccc(Cl)cc4)[C@@H]2O3)cc1` (relative stereo), the relative binding affinity (RBA) in data set [1] was found to be 2.36; in data set [2], 0.04. The IC50 with MCF7 was 5220 nM; in the data set on MCF-10A, > 100 µM. Further, the selectivity ratio in data set [3] is > 19.1.
Regarding `CCCCCCCCOc1ccc(C2=C(c3ccc(O)cc3)[C@H]3O[C@@H]2C[C@@H]3S(=O)(=O)N(CC)c2ccccc2)cc1` (relative stereo), the relative binding affinity (RBA) in [1] came to 1.03; in data set [2] it was 0.05. Moreover, the IC50 turned out to be 1160 nM with MCF7 and 34.6 µM in the data set on MCF-10A. In addition, the selectivity ratio in data set [3] turned out to be 29.8.
Turning to `CCCCCCCCOc1ccc(C2=C(c3ccc(O)cc3)[C@H]3O[C@@H]2C[C@@H]3S(=O)(=O)N(CC(F)(F)F)c2ccc(Cl)cc2)cc1`, the values for the relative binding affinity (RBA) in data set [1] and in data set [2] were 0.59 and 0.03, respectively. The IC50 with MCF7 amounted to 2720 nM; in the data set on MCF-10A it was 84.2 µM. The selectivity ratio in data set [3] was found to be 30.9.
For the molecule `CCCCOc1ccc(C2=C(c3ccc(O)cc3)[C@H]3C[C@H](S(=O)(=O)N(CC(F)(F)F)c4ccc(OC)cc4)[C@@H]2O3)cc1` (relative stereo), the figures for the relative binding affinity (RBA) in [1] and in [2] were 2.11 and 0.85, respectively. In addition, the IC50 turned out to be 3020 nM in the data set on MCF7 and 69.7 µM with MCF-10A. Also, the selectivity ratio in [3] is 23.1. Besides, the Activity in data set [4] amounted to 100%.
In the case of `CCCCCCOc1ccc(C2=C(c3ccc(O)cc3)[C@H]3O[C@@H]2C[C@@H]3S(=O)(=O)N(CC(F)(F)F)c2ccc(OC)cc2)cc1`, the relative binding affinity (RBA) in data set [1] was 4.43; in data set [2], 0.08. For the same molecule, the results for the IC50 in the data set on MCF7 and in the data set with MCF-10A were 840 nM and 42.4 µM, respectively. For the same molecule, the selectivity ratio in data set [3] turned out to be 50.4. Further, the Activity in [4] stood at 100%.
